Measurements taken from ChEMBL document CHEMBL2439974, “Design and Synthesis of 4-(4-Benzoylaminophenoxy)phenol Derivatives As Androgen Receptor Antagonists” (ACS Med Chem Lett, 2013).
Active and inactive are the calls of the source. The rule behind the calls is not given here.

Assays:
Androgen receptor = molecular target: T1, Androgen receptor (Homo sapiens, UniProt P10275); assay: Displacement of [3H]-DHT from human GST-tagged androgen receptor LBD (627 to 919) expressed in Escherichia coli HB-101 after 15 hrs by liquid scintillation counting analysis
T1 sequence (P10275 whole entry): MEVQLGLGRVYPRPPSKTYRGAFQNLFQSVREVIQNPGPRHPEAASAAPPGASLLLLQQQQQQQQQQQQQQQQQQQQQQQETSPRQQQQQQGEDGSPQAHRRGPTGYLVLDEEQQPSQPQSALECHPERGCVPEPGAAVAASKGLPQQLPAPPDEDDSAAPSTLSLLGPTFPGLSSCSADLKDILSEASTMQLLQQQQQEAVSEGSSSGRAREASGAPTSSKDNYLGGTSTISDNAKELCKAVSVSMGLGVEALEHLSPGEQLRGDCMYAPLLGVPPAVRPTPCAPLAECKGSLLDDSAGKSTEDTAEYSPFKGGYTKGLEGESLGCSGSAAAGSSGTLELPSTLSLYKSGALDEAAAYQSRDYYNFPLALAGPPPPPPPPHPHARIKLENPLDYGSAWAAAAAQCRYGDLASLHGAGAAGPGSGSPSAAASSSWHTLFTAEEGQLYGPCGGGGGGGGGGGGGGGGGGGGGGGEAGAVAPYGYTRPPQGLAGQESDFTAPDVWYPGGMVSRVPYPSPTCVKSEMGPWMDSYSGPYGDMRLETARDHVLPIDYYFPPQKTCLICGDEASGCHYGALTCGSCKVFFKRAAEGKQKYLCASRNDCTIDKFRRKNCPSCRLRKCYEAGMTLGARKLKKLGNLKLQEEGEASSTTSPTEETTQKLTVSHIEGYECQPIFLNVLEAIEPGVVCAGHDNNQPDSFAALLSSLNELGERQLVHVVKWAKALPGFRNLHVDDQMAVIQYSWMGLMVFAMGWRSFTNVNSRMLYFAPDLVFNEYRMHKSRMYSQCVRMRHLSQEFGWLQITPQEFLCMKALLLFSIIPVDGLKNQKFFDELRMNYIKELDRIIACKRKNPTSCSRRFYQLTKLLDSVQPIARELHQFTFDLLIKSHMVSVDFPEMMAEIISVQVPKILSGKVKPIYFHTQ

[1] = molecular target: T2, Androgen receptor (Homo sapiens) (UniProt P10275); assay: Antagonist activity at androgen receptor in human MDA-kb2 cells assessed as inhibition of DHT-induced luciferase activity at 10 uM after 24 hrs by chemiluminescence assay relative to control; format: cell-based
T2 sequence (whole entry): T1 sequence (P10275 whole entry)

PC-3 = assay: Cytotoxicity against human PC3 cells assessed as growth inhibition after 3 days by WST-8 assay; format: functional, cell-based; settings: PC-3, 72 h
[2] = molecular target: Androgen receptor (Mus musculus) (UniProt P19091); assay: Antagonist activity at androgen receptor in mouse SC3 cells assessed as inhibition of DHT-induced cell growth at 10 uM after 3 days by CCK-8/WST-8 assay relative to control; format: cell-based; settings: SC-3
Chain of Androgen receptor (Mus musculus) (P19091 whole entry): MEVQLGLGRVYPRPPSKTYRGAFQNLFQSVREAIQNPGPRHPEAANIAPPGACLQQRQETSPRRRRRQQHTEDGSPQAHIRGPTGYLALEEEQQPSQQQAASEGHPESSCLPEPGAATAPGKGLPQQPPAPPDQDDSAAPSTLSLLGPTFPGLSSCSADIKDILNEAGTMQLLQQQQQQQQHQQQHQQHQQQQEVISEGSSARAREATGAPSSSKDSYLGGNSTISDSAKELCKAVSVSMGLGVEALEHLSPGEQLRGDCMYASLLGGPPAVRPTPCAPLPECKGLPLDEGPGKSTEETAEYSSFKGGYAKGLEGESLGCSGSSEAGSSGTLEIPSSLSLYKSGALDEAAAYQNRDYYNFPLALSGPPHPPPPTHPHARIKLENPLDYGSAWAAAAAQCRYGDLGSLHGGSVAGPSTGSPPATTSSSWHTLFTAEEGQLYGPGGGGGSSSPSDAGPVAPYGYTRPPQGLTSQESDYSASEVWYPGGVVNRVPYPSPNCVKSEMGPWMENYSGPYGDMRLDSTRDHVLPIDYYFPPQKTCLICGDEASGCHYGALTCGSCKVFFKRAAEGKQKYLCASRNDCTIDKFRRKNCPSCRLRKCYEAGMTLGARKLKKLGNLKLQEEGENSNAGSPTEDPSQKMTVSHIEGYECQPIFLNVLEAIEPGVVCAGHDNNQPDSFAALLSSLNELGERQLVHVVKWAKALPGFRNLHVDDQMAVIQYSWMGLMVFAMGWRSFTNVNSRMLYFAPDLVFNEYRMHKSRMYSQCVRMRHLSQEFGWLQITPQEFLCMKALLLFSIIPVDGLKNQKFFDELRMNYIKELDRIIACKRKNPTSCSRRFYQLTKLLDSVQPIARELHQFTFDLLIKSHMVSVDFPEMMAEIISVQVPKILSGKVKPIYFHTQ

COc1cccc(C(=O)Nc2ccc(Oc3ccc(O)cc3)c(C)c2)c1
IC50 (Androgen receptor): 9.2 µM
inhibition [1]: 66%
IC50 (PC-3): 5.7 µM

CC(C)(O)C(=O)Nc1ccc([N+](=O)[O-])c(C(F)(F)F)c1
inhibition [1]: 60%

COc1cccc(C(=O)Nc2ccc(Oc3ccc(O)cc3)nc2)c1
IC50 (Androgen receptor): > 10 µM
inhibition [1]: inactive

O=C(Nc1ccc(Oc2ccccc2)cc1)c1ccccc1
growth inhibition (GI) [2]: 20%

COc1cccc(C(=O)Nc2cnc(Oc3ccc(O)cc3)nc2)c1
IC50 (Androgen receptor): > 10 µM
inhibition [1]: inactive

O=C(Nc1ccc(Oc2ccc(O)cc2)cc1)c1ccc(O)cc1
growth inhibition (GI) [2]: inactive

CC(O)(CS(=O)(=O)c1ccc(F)cc1)C(=O)Nc1ccc(C#N)c(C(F)(F)F)c1 (stereo not drawn) [BICALUTAMIDE]
IC50 (PC-3): > 10 µM

COc1cccc(C(=O)Nc2ccc(Oc3ccc(O)cc3)cc2)c1
IC50 (Androgen receptor): 20 µM
inhibition [1]: 6%
IC50 (PC-3): 5.6 µM

COc1cccc(C(=O)Nc2cc(C)c(Oc3ccc(O)cc3)c(C)c2)c1
IC50 (Androgen receptor): 5.4 µM
inhibition [1]: 69%
IC50 (PC-3): > 10 µM

O=C(Nc1ccc(Oc2ccc(O)cc2)cc1)c1cccc(O)c1
growth inhibition (GI) [2]: inactive
